Source: patent US11278522B2, “Use of methadone metabolites for treatment of anxiety and depression” (Georgetown University, priority 2015, dated 2022)

Experiments:
opiate receptors = assay: [3H]-naloxone binding competition in rat forebrain membranes
[1] = Open field locomotor activity (rats); format: in vivo, rat; conditions: 5 mg/kg s.c., 30 min after injection
Procedure: Locomotor Activity (Rats) Locomotor activity was measured 30 minutes after sc injection of test compound. Animals were placed in a Plexiglass enclosure (16″×16″×16″, TruScan Arena, Coulbourn Instruments, Whitehall, Pa.) with 770 lux illumination over the center of the arena. Animals were allowed to explore for 20 min, during which total distance traveled was recorded using ANYmaze software (Stoelting Co., Wood Dale, Ill.), as previously described (Forcelli et al., 2012).

[2] = Eyelid ptosis assessment (rats); format: in vivo, rat
Procedure: Ptosis was assessed as previously described (Rubin et al., 1957). Each animal was photographed while gently restrained by hand. Photographs were analyzed by a treatment blind observer (P.A.F.) and assigned a score of 0 (no ptosis, eye completely open), 1 (mild, eye partially closed), 2 (moderate, eye half closed), 3 (severe, eye […] closed), or 4 (complete, eye completely closed).

Forced swim test (rats) = format: in vivo, rat; conditions: three doses, 5 min test, vehicle 81 s
Procedure: Forced Swim Test (FST; Rats) The FST in rats was conducted as previously described (Porsolt et al., 2001). On day 1, rats were placed in a cylindrical chamber (20 cm in diameter, 46 cm deep) filled to a height of 38 cm with room temperature water for 15 min. After the completion of this pre-exposure test, animals were removed from the apparatus, dried with towels and placed under a heat lamp for ˜30 min. […] Animals were treated with these same doses again 20 h and 23 h after the initial dose. Twenty-four h after the pre-exposure, animals were re-introduced to the apparatus and video-recorded for 5 min. Immobility was hand-scored for each video record by a treatment blind observer (P.A.F.) using ANYmaze (Stoelting) to record the data.

[3] = Elevated plus maze (rats); format: in vivo, rat
Procedure: Elevated Plus Maze (Rats) Plus maze testing was performed and scored as previously described (Forcelli and Heinrichs, 2008; Forcelli et al., 2012), in a standard grey rat elevated plus maze (50 cm arms, elevated 40 cm off the ground [Stoelting Co., Wood Dale, Ill.]). Testing was conducted under 20 lux red light, 30 min after drug administration. The number of arm entries and time spent in open and closed arms were recorded using ANYmaze (Stoelting Co, Wood Dale, Ill.).

[4] = Home cage locomotor activity (mice); format: in vivo, mouse; conditions: mice, 0.5, 1, 5, 10 mg/kg i.p., 60 min
Procedure: Locomotor Activity (Mice) Locomotor activity in response to i.p. drug administration was analyzed in a “home cage” activity monitoring system (Med Associates, St. Albans, Vt.), as previously described (Walters and Blendy, 2001; Mackler et al., 2008; Isiegas et al., 2009). Briefly, a novel cage identical to the home cage (28.9 cm×17.8 cm 12 cm) was placed in a photo-beam frame (30 cm×24 cm×8 cm) with sensors arranged in an 8-beam array strip. For dose studies, mice were injected i.p. with saline or drug. Immediately following drug administration, the mice were placed individually in the cages. Beam break data was monitored and recorded for 60 min.

Marble burying (mice) = format: in vivo, mouse; conditions: 15 min test, vehicle mean 11 of 20
Procedure: Marble Burying (Mice) After a 1 h period of acclimation to the testing room, the mice (n=6-10 per group) were injected i.p. with saline, EDDP, EMDP, or CDP at the doses indicated. Ten minutes later, the mice were placed individually in small cages (26×20×14 cm), in which twenty marbles had been equally distributed on top of mouse bedding (5-cm deep), and a wire lid was placed on top of the cage. Mice were left undisturbed for 15 min, after which time the number of buried marbles (i.e., those covered by bedding three-quarters or more) was counted.

rat α3β4 nAChR channels = rat α3β4 nAChR channels (Rattus norvegicus, UniProt P04757+P12392); conditions: 2001, cited from earlier work
human α3β4 nAChRs = biological target: T1, human α3β4 nAChRs (Homo sapiens, UniProt P30926+P32297); assay: 86Rb+ efflux assay, inhibition of nicotine-stimulated efflux, α3β4 nAChRs; format: cell-based
T1 construct: expressed in transfected cells
Procedure: Stable cell lines and ^86Rb^+ efflux Assay. […] These cell lines were maintained in minimum essential medium (MEM) supplemented with 10% fetal bovine serum, 100 units/mL penicillin G, […] and selective antibiotics at 37° C. with 5% CO2 in a humidified incubator. Tissue culture medium and antibiotics were obtained from Invitrogen Corporation (Carlsbad, Calif.), unless otherwise stated. Fetal bovine serum was obtained from Gemini Bio-Products (Woodland, Calif.).
In brief, cells were plated into 24-well plates coated with poly-D-lysine. […] The cells were then incubated in growth medium (0.5 mL/well) containing ^86Rb^+ (2 μCi/mL) for 4 hour at 37° C. The loading mixture was then aspirated, and the cells were washed four times with 1 mL buffer (15 mM HEPES, 140 mM NaCl, 2 mM KCl, 1 mM MgSO4, 1.8 mM CaCl2), 11 mM Glucose, pH 7.4). One mL of buffer with or without compounds to be tested was then added to each well. After incubation for 2 min, the assay buffer was collected for measurements of ^86Rb^+ released from the cells. Cells were then lysed by adding 1 mL of 100 mM NaOH to each well, and the lysate was collected for determination of the amount of ^86Rb^+ that was in the cells at the end of the efflux assay. Radioactivity of assay samples and lysates was measured by liquid scintillation counting. Total loading (cpm) was calculated as the sum of the assay sample and the lysate of each well, and the amount of ^86Rb^+ efflux was expressed as a percentage of ^86Rb^+ loaded. Stimulated ^86Rb^+ efflux was defined as the difference between efflux in the presence and absence of nicotine. […] IC50 values were determined by nonlinear least-squares regression analyses (GraphPad. San Diego, Calif.).

Forced swim test (mice) = format: in vivo, mouse; conditions: 6 min test
Procedure: Forced Swim Test (FST; Mice) The FST in mice was conducted as previously described [11]. Briefly, 10 min following i.p. injection of saline, EDDP or EMDP, mice were placed in Plexiglas cylinders filled with water (25° C.) for 6 min while being videotaped. The forced swim score for the entire 6 min test was assessed using the Cleversystems videotracking system (CleverSys) and confirmed with visual scoring by a trained observer. A mouse was judged to be immobile when making only those movements necessary to keep its head above water.

rat α3β4 nAChR channels, sequence (P04757 26-499): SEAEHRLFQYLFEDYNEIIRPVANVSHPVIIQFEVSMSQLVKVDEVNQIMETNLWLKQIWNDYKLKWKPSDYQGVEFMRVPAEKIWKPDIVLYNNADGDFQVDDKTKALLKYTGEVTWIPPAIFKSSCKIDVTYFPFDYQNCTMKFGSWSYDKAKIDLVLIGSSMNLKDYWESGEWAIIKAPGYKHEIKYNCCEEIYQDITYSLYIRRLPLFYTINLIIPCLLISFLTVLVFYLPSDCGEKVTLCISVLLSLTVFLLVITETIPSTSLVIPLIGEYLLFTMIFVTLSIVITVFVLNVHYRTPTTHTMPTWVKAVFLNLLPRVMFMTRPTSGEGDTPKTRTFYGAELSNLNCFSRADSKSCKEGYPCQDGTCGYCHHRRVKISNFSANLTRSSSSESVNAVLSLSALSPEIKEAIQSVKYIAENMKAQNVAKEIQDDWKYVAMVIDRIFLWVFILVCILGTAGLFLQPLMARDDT
rat α3β4 nAChR channels, sequence (P12392 21-495): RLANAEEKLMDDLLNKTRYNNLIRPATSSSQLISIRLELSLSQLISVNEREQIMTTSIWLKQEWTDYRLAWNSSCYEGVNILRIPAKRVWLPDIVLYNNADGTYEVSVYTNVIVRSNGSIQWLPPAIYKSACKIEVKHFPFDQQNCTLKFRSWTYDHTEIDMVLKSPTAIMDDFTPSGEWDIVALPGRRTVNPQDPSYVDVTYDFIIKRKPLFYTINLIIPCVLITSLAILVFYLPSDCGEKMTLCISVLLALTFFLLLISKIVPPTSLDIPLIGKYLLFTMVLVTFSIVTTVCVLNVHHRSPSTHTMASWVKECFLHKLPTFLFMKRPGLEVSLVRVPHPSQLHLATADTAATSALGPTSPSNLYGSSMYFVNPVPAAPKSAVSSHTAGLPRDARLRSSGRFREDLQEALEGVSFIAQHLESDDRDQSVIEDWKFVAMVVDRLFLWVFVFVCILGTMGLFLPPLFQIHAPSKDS
T1 sequence (P32297 32-505): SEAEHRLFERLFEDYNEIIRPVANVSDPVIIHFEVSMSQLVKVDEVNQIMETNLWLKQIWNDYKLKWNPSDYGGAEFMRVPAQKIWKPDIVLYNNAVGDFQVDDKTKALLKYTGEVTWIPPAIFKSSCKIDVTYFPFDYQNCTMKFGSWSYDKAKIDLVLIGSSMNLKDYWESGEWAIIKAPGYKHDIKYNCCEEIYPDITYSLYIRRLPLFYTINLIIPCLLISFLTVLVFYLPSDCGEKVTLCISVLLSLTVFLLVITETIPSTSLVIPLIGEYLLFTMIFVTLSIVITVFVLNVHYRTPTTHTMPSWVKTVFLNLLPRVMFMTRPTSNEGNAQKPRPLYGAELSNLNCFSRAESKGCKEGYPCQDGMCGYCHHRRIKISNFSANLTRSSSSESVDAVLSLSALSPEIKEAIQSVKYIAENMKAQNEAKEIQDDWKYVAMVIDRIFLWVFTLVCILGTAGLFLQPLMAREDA
T1 sequence (P30926 22-498): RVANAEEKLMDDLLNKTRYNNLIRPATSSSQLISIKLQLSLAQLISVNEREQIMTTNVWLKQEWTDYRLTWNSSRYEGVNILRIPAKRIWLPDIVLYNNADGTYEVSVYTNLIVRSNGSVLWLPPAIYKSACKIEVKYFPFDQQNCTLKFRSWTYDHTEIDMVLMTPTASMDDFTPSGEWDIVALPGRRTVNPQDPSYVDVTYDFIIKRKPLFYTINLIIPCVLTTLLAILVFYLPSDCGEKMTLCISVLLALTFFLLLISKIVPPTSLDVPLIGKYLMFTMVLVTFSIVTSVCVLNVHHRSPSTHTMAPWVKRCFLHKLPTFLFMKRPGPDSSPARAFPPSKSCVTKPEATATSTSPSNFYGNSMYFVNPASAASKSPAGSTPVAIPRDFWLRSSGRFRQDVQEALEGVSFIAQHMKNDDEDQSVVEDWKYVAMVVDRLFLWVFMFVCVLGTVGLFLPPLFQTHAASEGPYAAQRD

SMILES: CCC1=NC(C)CC1(c1ccccc1)c1ccccc1 (racemic) [EMDP, 2-ethyl-5-methyl-3,3-diphenyl-1-pyrroline]
- fraction of [3H]-naloxone binding sites competed for (opiate receptors; at a concentration of 100 μM): 60%
- apparent affinity, fold lower than that of methadone (opiate receptors; rat forebrain [3H]-naloxone binding): ~1900 fold
- Ki (opiate receptors; rat forebrain membranes, 2 nM [3H]-naloxone, single-site model): 21 µM
- open field locomotor activity [1]: neither EDDP nor EMDP significantly altered
- eyelid ptosis quantified over 3 h ([2]; 20 mg/kg): ptosis was not apparent at any time
- ptosis observed during forced swim tests ([2]; 10 and 20 mg/kg): did not produce ptosis
- immobile time in forced swim test vs vehicle (Forced swim test (rats); 10 mg/kg s.c.): reduced immobile time
- immobile time in forced swim test vs vehicle (Forced swim test (rats); 20 mg/kg s.c.): reduced immobile time
- mean duration in the open arms of the elevated plus maze ([3]; s.c., dose not given, 30 min after drug, vehicle 104 s): 143 s
- percentage of entries made into the open arms of the plus maze ([3]; vs vehicle): the groups did not differ
- latency to first entry in the open arms ([3]; vs vehicle (data not shown)): did not differ as a function of treatment group
- overall home cage locomotor activity [4]: did not significantly affect
- number of marbles buried vs vehicle (Marble burying (mice); 5 mg/kg i.p.): buried significantly fewer marbles
- number of marbles buried vs vehicle (Marble burying (mice); 10 mg/kg i.p.): buried significantly fewer marbles
- potency relative to mecamylamine in blocking rat α3β4 nAChRs (rat α3β4 nAChR channels; Xiao et al): one-sixth as potent
- block of rat α3β4 nAChR channels (rat α3β4 nAChR channels; Xiao et al.): potently block
- potency relative to mecamylamine in blocking human α3β4 nAChRs (human α3β4 nAChRs): half as potent as mecamylamine
- duration of immobility in forced swim test vs vehicle (Forced swim test (mice); 5 mg/kg i.p.): did not affect immobility time
- duration of immobility in forced swim test vs vehicle (Forced swim test (mice); 10 mg/kg i.p.): significantly reduced
